Results as given in patent publication US12336980B2, “Dosing regimen for a selective S1P1 receptor agonist” (Vanda Pharmaceuticals Inc., priority 2014, dated 2025).

Tests used:
healthy subjects = assay: 12-lead ECG, heart rate, PR interval and ECG abnormalities, cross-over up-titration study; type: in vivo, human; conditions: for mean maximum change from baseline in HR (12-lead ECG): Day 2, 2 h post-dose; for mean maximum change from baseline in HR (12-lead ECG) / decrease in HR vs. baseline (12-lead ECG): mean±SD; for decrease in HR vs. baseline (12-lead ECG): Day 3, 2 h after administration; for time for HR to return to baseline values post-dose (12-lead ECG): Day 2; for occurrence of HR <45 bpm, events / occurrence of HR <45 bpm, subjects: any time during the regimen, 12-lead ECG; for occurrence of PR interval >210 ms, events / occurrence of PR interval >210 ms, subjects: during the course of the study; for occurrence of HR <45 bpm, HR decrease >20 bpm, PR interval ≥200 ms or PR increase >20 ms, events / occurrence of HR <45 bpm, HR decrease >20 bpm, PR interval ≥200 ms or PR increase >20 ms, subjects / percentage of subjects with at least one event (HR <45 bpm, HR decrease >20 bpm, PR ≥200 ms, PR increase >20 ms): first 12 hours on Day 2
Description: In a single-center, double-blind, placebo-controlled, randomized, two-way cross-over study, 32 healthy subjects (15 males) received placebo on Day 1 followed by multiple-dose administration of either ponesimod or placebo (ratio 3:1). Ponesimod was administered alternately using regimen A (incremental dose increase from 2 to 20 mg) or B (10 mg for 7 days followed by a single-dose administration of 20 mg). Cardiodynamic (Holter and 12-lead ECG), pharmacokinetic, pharmacodynamic (total lymphocyte count), and safety variables were assessed.
The enrolled subjects came to the study center for each treatment period on Day −2 and participated in a run-in (all study procedures performed without study drug administration) on Day −1. On Day 1, subjects were randomized to one of the two possible sequences of the two up-titration regimens A and B (ratio 1:1). On Day 1, all subjects received placebo; the first study drug administration (or its matching placebo) occurred on Day 2. Regimen A consisted of the novel up-titration regimen: ponesimod was administered once daily (o.d.) orally at a dose of 2 mg on Day 2 and Day 3, 3 mg on Day 4 and Day 5, 4 mg on Day 6 and Day 7, 5 mg on Day 8, 6 mg on Day 9, 7 mg on Day 10, 8 mg on Day 11, 9 mg on Day 12, 10 mg on Day 13 and Day 14, and 20 mg on Day 15. The reference regimen (regimen B) was based on previous studies (Olsson T. et al., Oral ponesimod in relapsing-remitting multiple sclerosis: a randomised phase II trial. J Neurol Neurosurg Psychiatry. 2014; 85 (11): 1198-1208; and Vaclavkova A. et al., Oral ponesimod in patients with chronic plaque psoriasis: a randomised, double-blind, placebo-controlled phase 2 trial. Lancet. 2014; 384 (9959): 2036-2045) and consisted of an o.d. oral administration of ponesimod at a dose of 10 mg for 7 days (i.e., from Day 2 to Day 8) and 20 mg on Day 9. From Day 10 to Day 15 subjects received o.d. the matching placebo. In the placebo group (1:1 sex ratio), subjects received placebo from Day 1 to Day 15. All treatments were administered at the same time in the morning (fasted condition) with approximately 240 mL of water.
Cardiodynamic endpoints were assessed using Holter and 12-lead ECG. The 24-h Holter recordings were performed on Day -1, Day 1, Day 2, Day 9, Day 13, and Day 15. The 12-h Holter recordings were performed on the other days. In addition, Holter data were used to estimate the area under the effect curve (AUEC) for HR. 12-lead ECGs were performed from Day −1 to Day 16 at pre-dose and 1, 2, 3, 4, 5, 6, 8, 10, and 12 h after study drug administration. An additional 12-lead ECG recording was performed at EOFP and EOS. Heart rate nadir, Emax (maximum decrease of mean hourly HR from baseline, which was defined as the mean of the time-matched assessments measured on Day −1 and Day 1 pre-dose), and occurrence of values of interest (HR <45 bpm, HR decrease from baseline >20 bpm, and PR interval increase from baseline >20 ms), and AV-blocks (i.e., […]) were obtained with 12-lead ECG.
Cardiodynamic and pharmacodynamic data are expressed as mean±SD. Repeated measure one-way ANOVAs followed by Tukey's multiple-comparisons tests were used to perform inter-group (i.e., placebo vs. regimen A vs. regimen B) comparisons. Student's t-tests were employed to perform intra-group (baseline vs. treatment) comparisons. Differences were considered to be statistically significant at p <0.05. SAS® version 9.2 (SAS Institute, Cary, NC, USA) was used for the statistical analysis and descriptive statistics of clinical data.

[1] = system: peripheral blood lymphocytes; assay: Repeated daily oral dosing, number of peripheral blood lymphocytes (background finding); type: in vivo, human; conditions: repeated daily oral dosing of 5 mg or more to humans
[2] = Regimen A (N = 24), Day 2 to EOFP or EOS visit
[3] = Regimen B (N = 24), Day 2 to EOFP or EOS visit

With `CCC/N=C1\S/C(=C\c2ccc(OC[C@H](O)CO)c(Cl)c2)C(=O)N1c1ccccc1C` [ponesimod, (R)-5-[3-chloro-4-(2,3-dihydroxy-propoxy)-benz[Z]ylidene]-2-([Z]-propylimino)-3-o-tolyl-thiazolidin-4-one] the “mean maximum change from baseline in HR (12-lead ECG)” value (healthy subjects; 2 mg (regimen A)) was −9±5.3 bpm, the “decrease in HR vs. baseline (12-lead ECG)” value (healthy subjects; 2 mg second dose) was −9±5.2 bpm and the “mean maximum change from baseline in HR (12-lead ECG)” value (healthy subjects; 10 mg (regimen B)) was −13±6.2 bpm. For the same molecule, the “decrease in HR vs. baseline (12-lead ECG)” value (healthy subjects; 10 mg second dose) was −10±5.1 bpm, the “pre-dose HR values (range)” value (healthy subjects; Day 4 to last day of administration, ponesimod-treated subjects) was 56-60 bpm and the “Atrial rhythm, number of events” value (healthy subjects; [2]) was 19. For the same molecule, the “Atrial rhythm, number of subjects” value (healthy subjects; [2]) was 4, the “Atrial rhythm, percentage of subjects” value (healthy subjects; [2]) was 16.7 percentage and the “Sinus bradycardia, number of events” value (healthy subjects; [2]) was 3. For the same molecule, the “Sinus bradycardia, number of subjects” value (healthy subjects; [2]) was 3, the “Sinus bradycardia, percentage of subjects” value (healthy subjects; [2]) was 12.5 percentage and the “Supraventricular extrasystoles, number of events” value (healthy subjects; [2]) was 15. The “Supraventricular extrasystoles, number of subjects” value (healthy subjects; [2]) was 3, the “Supraventricular extrasystoles, percentage of subjects” value (healthy subjects; [2]) was 12.5 percentage and the “Ventricular extrasystoles, number of events” value (healthy subjects; [2]) was 1. The “Ventricular extrasystoles, number of subjects” value (healthy subjects; [2]) was 1, the “Ventricular extrasystoles, percentage of subjects” value (healthy subjects; [2]) was 4.2 percentage and the “AV-block 1st degree, number of events” value (healthy subjects; [3]) was 130. The “AV-block 1st degree, number of subjects” value (healthy subjects; [3]) was 6, the “AV-block 1st degree, percentage of subjects” value (healthy subjects; [3]) was 25.0 percentage and the “AV-block 2nd degree Mobitz I, number of events” value (healthy subjects; [3]) was 1. The “AV-block 2nd degree Mobitz I, number of subjects” value (healthy subjects; [3]) was 1, the “AV-block 2nd degree Mobitz I, percentage of subjects” value (healthy subjects; [3]) was 4.2 percentage and the “Atrial fibrillation, number of subjects” value (healthy subjects; [3]) was 1. For the same molecule, the “Atrial fibrillation, percentage of subjects” value (healthy subjects; [3]) was 4.2 percentage, the “Atrial rhythm, number of events” value (healthy subjects; [3]) was 12 and the “Atrial rhythm, number of subjects” value (healthy subjects; [3]) was 2. The “Atrial rhythm, percentage of subjects” value (healthy subjects; [3]) was 8.3 percentage, the “QT prolonged, number of events” value (healthy subjects; [3]) was 142 and the “QT prolonged, number of subjects” value (healthy subjects; [3]) was 6. The “QT prolonged, percentage of subjects” value (healthy subjects; [3]) was 25.0 percentage, the “Short PQ, number of events” value (healthy subjects; [3]) was 147 and the “Short PQ, number of subjects” value (healthy subjects; [3]) was 6. For the same molecule, the “Short PQ, percentage of subjects” value (healthy subjects; [3]) was 25.0 percentage, the “Sinus arrhythmia, number of events” value (healthy subjects; [3]) was 98 and the “Sinus arrhythmia, number of subjects” value (healthy subjects; [3]) was 12. For the same molecule, the “Sinus arrhythmia, percentage of subjects” value (healthy subjects; [3]) was 50.0 percentage, the “Sinus bradycardia, number of events” value (healthy subjects; [3]) was 33 and the “Sinus bradycardia, number of subjects” value (healthy subjects; [3]) was 3. For the same molecule, the “Sinus bradycardia, percentage of subjects” value (healthy subjects; [3]) was 12.5 percentage, the “Supraventricular extrasystoles, number of events” value (healthy subjects; [3]) was 29 and the “Supraventricular extrasystoles, number of subjects” value (healthy subjects; [3]) was 7. The “Supraventricular extrasystoles, percentage of subjects” value (healthy subjects; [3]) was 29.2 percentage, the “Ventricular extrasystoles, number of events” value (healthy subjects; [3]) was 3 and the “Ventricular extrasystoles, number of subjects” value (healthy subjects; [3]) was 3. For the same molecule, the “Ventricular extrasystoles, percentage of subjects” value (healthy subjects; [3]) was 12.5 percentage, the “Atrial fibrillation, number of events” value (healthy subjects; Regimen B (N = 24), Day 2 to EOFP or EOS visit, *Serious adverse event) was 1 and the “time for HR to return to baseline values post-dose (12-lead ECG)” value (healthy subjects; regimen A) was no more than 3 h. The “occurrence of HR <45 bpm, events” value (healthy subjects; regimen A) was 20 events, the “occurrence of HR <45 bpm, subjects” value (healthy subjects; regimen A) was 3 subjects and the “occurrence of PR interval >210 ms, events” value (healthy subjects; regimen A) was 79 events. The “occurrence of PR interval >210 ms, subjects” value (healthy subjects; regimen A) was 6 subjects, the “occurrence of HR <45 bpm, HR decrease >20 bpm, PR interval ≥200 ms or PR increase >20 ms, events” value (healthy subjects; regimen A) was 14 events and the “occurrence of HR <45 bpm, HR decrease >20 bpm, PR interval ≥200 ms or PR increase >20 ms, subjects” value (healthy subjects; regimen A) was 6 subjects. For the same molecule, the “percentage of subjects with at least one event (HR <45 bpm, HR decrease >20 bpm, PR ≥200 ms, PR increase >20 ms)” value (healthy subjects; regimen A) was 25%, the “time for HR to return to baseline values post-dose (12-lead ECG)” value (healthy subjects; regimen B) was no more than 4 h and the “occurrence of HR <45 bpm, events” value (healthy subjects; regimen B) was 58 events. For the same molecule, the “occurrence of HR <45 bpm, subjects” value (healthy subjects; regimen B) was 4 subjects, the “occurrence of PR interval >210 ms, events” value (healthy subjects; regimen B) was 143 events and the “occurrence of PR interval >210 ms, subjects” value (healthy subjects; regimen B) was 8 subjects. The “occurrence of HR <45 bpm, HR decrease >20 bpm, PR interval ≥200 ms or PR increase >20 ms, events” value (healthy subjects; regimen B) was 43 events, the “occurrence of HR <45 bpm, HR decrease >20 bpm, PR interval ≥200 ms or PR increase >20 ms, subjects” value (healthy subjects; regimen B) was 12 subjects and the “percentage of subjects with at least one event (HR <45 bpm, HR decrease >20 bpm, PR ≥200 ms, PR increase >20 ms)” value (healthy subjects; regimen B) was 50%. The “reduction in the number of peripheral blood lymphocytes” value [1] was “consistent, sustained, and dose-dependent reduction”.
